Laboratory results as given in publication PMC8151276, “An Integrated Approach toward NanoBRET Tracers for Analysis of GPCR Ligand Engagement” (Molecules, 2021).

Key:
Type in all cases: binding
NPY1R = target: T1, NPY1R (Homo sapiens, UniProt P25929); test: NanoBRET screen HiBiT-NPY1R in HEK293
T1 construct: purchased Promega (in-house HiBiT-GPCR construct library, NanoBRET)
T1 sequence (P25929 1-384): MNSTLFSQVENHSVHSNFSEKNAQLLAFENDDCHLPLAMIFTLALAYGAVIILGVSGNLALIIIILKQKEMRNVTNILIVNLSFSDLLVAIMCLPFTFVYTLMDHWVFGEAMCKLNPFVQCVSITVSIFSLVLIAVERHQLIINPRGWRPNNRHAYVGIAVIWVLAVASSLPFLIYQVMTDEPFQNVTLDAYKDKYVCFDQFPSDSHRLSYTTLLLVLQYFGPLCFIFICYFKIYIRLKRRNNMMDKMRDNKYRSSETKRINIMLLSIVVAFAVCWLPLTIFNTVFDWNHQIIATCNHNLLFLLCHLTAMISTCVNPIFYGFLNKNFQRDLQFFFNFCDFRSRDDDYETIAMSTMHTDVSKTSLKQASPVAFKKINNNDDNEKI
Procedure: (§1) Each tracer candidate was screened across the entire library of HiBiT-GPCR constructs using NanoBRET as the detection modality. As depicted in Figure 4A, the specificity of interactions was evaluated through decrease in BRET due to competitive displacement of a bound tracer by excess parental compound. Each tracer was analyzed for binding to each HiBiT-GPCR fusion in the absence and in the presence of competing parental compound. Briefly, HEK293 cells were transfected with HiBiT-GPCR constructs diluted into promoterless DNA to reduce expression and maximize translocation to the cell surface. Each tracer candidate was then screened at concentrations of 1 μM and 0.1 μM across cells expressing these fusions. Cells were treated for 1.5 h with tracer either alone or in the presence of 20 μM competing parental compound (i.e., control). BRET was measured upon addition of purified LgBiT and subsequent complementation with HiBiT genetically fused to a GPCR. The specificity of interactions was assessed through a decrease in BRET signal due to competitive displacement of the bound tracer. To further gauge the robustness of these interactions, the fold response over the control (i.e., BRETtracer/BRETcontrol) was calculated. We chose a 1.5-fold response, which translates to ≥7-fold signal over noise as the minimal threshold required to score an interaction as positive. […]. Below we highlight the screening results obtained for our exemplary fluorescent tracers based on Clozapine, Amitriptyline and AZD1283.
(§2) HiBiT-GPCR DNA constructs were diluted in 10 mM Tris pH 8 to a final concentration of 0.01 μg/μL, arrayed in 96-well plates and stored at −20 °C. For transfection, HEK293 cells were suspended in Opti-MEM (without phenol red) supplemented with 2% fetal bovine serum (Seradigm) and 100 units/mL penicillin–streptomycin (Gibco) at a final concentration of 220,000 cells/mL and dispensed into white 96-well plates at 90 μL/well. Subsequent transfections and screens were carried using an Agilent Bravo Automated Liquid Handling Platform. First, the 96-well HiBiT DNA arrays were diluted 25-fold in Opti-MEM (without serum or phenol red) to a final concentration of 0.0004 μg/μL and 20 μL of the diluted DNAs were transferred into new 96-well plates. Next, promoterless carrier DNA (1 μg/μL) was diluted 25-fold (0.04 μg/μL) and then dispensed into the diluted arrays at 20 μL/well. Following brief mixing, Viafect transfection reagent (Promega) diluted 16-fold into Opti-MEM was dispensed into the plates at 40 μL/well. After mixing by pipetting, plates were incubated for 10 min on the pipetting station deck. The DNA-transfection reagent complexes were then added to plates containing cells. To facilitate the screen, 10 μL of DNA-transfection reagent complexes were added in duplicates to the top 4 and bottom 4 rows, resulting in two identical 48-well arrays per plate. Plates with transfected cells were incubated for 18–20 h at 37 °C/5% CO2. A screen of each tracer across the entire library using two different concentrations requires duplicate plates of transfected cells. Depending on the number of tracers being screened, transfections can be scaled up using the same ratios. The next day, for each tracer, four 20× screening solutions in tracer dilution buffer (Promega) were prepared: two duplicates at final concentration of 20 μM and two duplicates at a final concentration of 2 μM. A competing unmodified compound was added to one of each duplicate at a final concentration of 400 μM. The four resulting solutions were diluted 4-fold in Opti-MEM without serum or phenol red to generate 5× solutions (5 µM and 0.5 µM tracer +/− 100 μM competing compound). To screen the library, a BioTek MultiFlo FX liquid dispenser was used to dispense 22.5 µL of tracer solution to the top 4 rows and 22.5 µL tracer + competing compound solution to the 4 bottom rows. Plates were briefly mixed on an orbital shaker and incubated for 1.5 h at room temperature. […]

PTGER3 = target: T2, PTGER3 (Homo sapiens, UniProt P43115); test: NanoBRET screen HiBiT-PTGER3 in HEK293
T2 construct: purchased Promega (in-house HiBiT-GPCR construct library, NanoBRET)
T2 sequence (P43115 1-390): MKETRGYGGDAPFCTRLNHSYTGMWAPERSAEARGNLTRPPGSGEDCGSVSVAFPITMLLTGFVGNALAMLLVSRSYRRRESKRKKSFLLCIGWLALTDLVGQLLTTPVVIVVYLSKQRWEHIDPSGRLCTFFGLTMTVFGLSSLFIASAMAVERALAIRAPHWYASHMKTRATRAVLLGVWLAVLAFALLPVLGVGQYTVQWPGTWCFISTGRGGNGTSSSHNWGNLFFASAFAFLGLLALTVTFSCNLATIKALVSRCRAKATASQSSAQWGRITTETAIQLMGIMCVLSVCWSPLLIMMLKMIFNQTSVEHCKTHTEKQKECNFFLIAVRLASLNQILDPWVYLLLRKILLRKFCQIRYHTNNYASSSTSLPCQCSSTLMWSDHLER
Procedure: as §1, §2

CCR6 = target: T3, CCR6 (Homo sapiens, UniProt P51684); test: NanoBRET screen HiBiT-CCR6 in HEK293
T3 construct: purchased Promega (in-house HiBiT-GPCR construct library, NanoBRET)
T3 sequence (P51684 1-374): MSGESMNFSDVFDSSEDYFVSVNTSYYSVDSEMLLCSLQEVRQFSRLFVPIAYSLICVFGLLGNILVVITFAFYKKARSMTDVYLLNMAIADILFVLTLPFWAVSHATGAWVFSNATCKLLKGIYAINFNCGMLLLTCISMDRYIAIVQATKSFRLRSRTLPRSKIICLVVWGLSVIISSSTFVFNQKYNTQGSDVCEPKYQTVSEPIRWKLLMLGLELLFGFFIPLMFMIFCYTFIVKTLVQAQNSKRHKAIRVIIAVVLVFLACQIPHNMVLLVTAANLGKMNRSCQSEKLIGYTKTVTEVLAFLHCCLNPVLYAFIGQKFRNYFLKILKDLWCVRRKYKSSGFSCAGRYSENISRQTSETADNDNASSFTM
Procedure: as §1, §2

[1] = tracer at 0.1μM, listed as amitriptyline-b-2-NB590
[2] = tracer at 1μM, listed as amitriptyline-b-2-NB590

Compound	NanoBRET Fold Response (NPY1R; NPY1R, tracer 0.1μM)	NanoBRET Fold Response (NPY1R; NPY1R, tracer 1μM)	NanoBRET Fold Response (PTGER3; PTGER3, tracer 0.1μM)	NanoBRET Fold Response (PTGER3; PTGER3, tracer 1μM)	NanoBRET Fold Response (CCR6; CCR6, tracer 0.1μM)	NanoBRET Fold Response (CCR6; CCR6, tracer 1μM)	further results
Cc1nc2n(c(=O)c1CCN1CCC(c3noc4cc(F)ccc34)CC1)CCCC2OC(=O)NCCOCCOCCOCCOCCNC(=O)CCc1ccc2n1[B-](F)(F)[N+]1=C(c3ccc[nH]3)C=CC1=C2 (centres unmarked) [Risperidone-2-NB590]	0.88	0.99	0.94	1.12	1.07	0.91	–
CCOC(=O)c1cc(C#N)c(N2CCC(C(=O)NS(=O)(=O)Cc3ccccc3/C=C/C(=O)NCCNC(=O)CCc3ccc4n3[B-](F)(F)[N+]3=C(c5ccc[nH]5)C=CC3=C4)CC2)nc1C [AZD1283-1-NB590]	–	–	–	–	–	–	NanoBRET Fold Response (NPY1R; NPY1R, 0.1μM): 1.10; NanoBRET Fold Response (NPY1R; NPY1R, 1μM): 1.04; NanoBRET Fold Response (PTGER3; PTGER3, 0.1μM): 1.08; NanoBRET Fold Response (PTGER3; PTGER3, 1μM): 1.10; NanoBRET Fold Response (CCR6; CCR6, 0.1μM): 1.06; NanoBRET Fold Response (CCR6; CCR6, 1μM): 1.08
Cc1cc2c(s1)Nc1ccccc1N=C2N1CCN(CCCNC(=O)CCOCCOCCOCCOCCNC(=O)CCc2ccc3n2[B-](F)(F)[N+]2=C(c4ccc[nH]4)C=CC2=C3)CC1 [Olanzapine-a-2-NB590]	1.02	1.02	1.00	0.95	1.00	1.21	–
COc1ccccc1N1CCN(CCCCN2C(=O)c3ccc(CNC(=O)CCOCCNC(=O)c4ccc(CNC(=O)CCc5ccc6n5[B-](F)(F)[N+]5=C(c7ccc[nH]7)C=CC5=C6)cc4)cc3C2=O)CC1 [NAN-190-3-NB590]	0.88	0.94	0.99	0.64	1.19	0.93	–
CC(C)N(CC[C@H](c1ccccc1)c1cc(CCNC(=O)CCOCCOCCOCCOCCNC(=O)CCc2ccc3n2[B-](F)(F)[N+]2=C(c4ccc[nH]4)C=CC2=C3)ccc1O)C(C)C [Tolterodine-2-NB590]	1.16	1.00	1.14	0.99	1.07	1.01	–
CN(C)CCC=C1c2ccccc2CCc2ccc(C(=O)NCCNC(=O)CCOCCOCCOCCOCCNC(=O)CCc3ccc4n3[B-](F)(F)[N+]3=C(c5ccc[nH]5)C=CC3=C4)cc21 [Amitriptyline-b-2-NB590]	–	–	–	–	–	–	NanoBRET Fold Response (NPY1R; [1]): 0.90; NanoBRET Fold Response (NPY1R; [2]): 1.11; NanoBRET Fold Response (PTGER3; tracer at 0.1μM): 0.96; NanoBRET Fold Response (PTGER3; tracer at 1μM): 1.01; NanoBRET Fold Response (CCR6; [1]): 1.01; NanoBRET Fold Response (CCR6; [2]): 1.01
O=C(CCOCCOCCOCCOCCNC(=O)CCc1ccc2n1[B-](F)(F)[N+]1=C(c3ccc[nH]3)C=CC1=C2)NCCCN1CCN(C2=Nc3ccccc3Oc3ccc(Cl)cc32)CC1 [Loxapine-a-2-NB590]	0.94	1.09	0.98	0.98	1.00	0.97	–
CN(C)CCC=C1c2ccccc2CCc2ccc(C(=O)NCCNC(=O)CCOCCOCCOCCOCCNC(=O)CCc3ccc4n3[B-](F)(F)[N+]3=C(c5ccc[nH]5)C=CC3=C4)cc21 [Amitriptyline-a-2-NB590]	–	–	–	–	–	–	NanoBRET Fold Response (NPY1R; tracer at 0.1μM): 1.00; NanoBRET Fold Response (NPY1R; tracer at 1μM): 1.03; NanoBRET Fold Response (CCR6; tracer at 0.1μM): 0.96; NanoBRET Fold Response (CCR6; tracer at 1μM): 0.94
O=C(CCc1ccc2n1[B-](F)(F)[N+]1=C(c3ccc[nH]3)C=CC1=C2)NCCOCCOCCNC(=O)OCCOCCN1CCN(C2=Nc3ccccc3Sc3ccccc32)CC1 [Quetiapine-a-2-NB590]	1.03	0.71	0.97	1.04	1.05	0.95	–
COc1ccccc1N1CCN(CCCCN2C(=O)c3ccc(CNC(=O)CCOCCOCCOCCOCCNC(=O)CCc4ccc5n4[B-](F)(F)[N+]4=C(c6ccc[nH]6)C=CC4=C5)cc3C2=O)CC1 [NAN-190-2-NB590]	1.02	0.94	1.00	1.02	0.99	1.02	–
CN1CCN(C2=Nc3cc(Cl)ccc3N(CC(=O)NCCOCCOCCOCCOCCNC(=O)CCc3ccc4n3[B-](F)(F)[N+]3=C(c5ccc[nH]5)C=CC3=C4)c3ccccc32)CC1 [Clozapine-c-2-NB590]	–	–	–	–	–	–	NanoBRET Fold Response (NPY1R; NPY1R, 0.1μM tracer): 1.01; NanoBRET Fold Response (NPY1R; NPY1R, 1μM tracer): 1.01; NanoBRET Fold Response (PTGER3; PTGER3, 0.1μM tracer): 1.00; NanoBRET Fold Response (PTGER3; PTGER3, 1μM tracer): 1.11; NanoBRET Fold Response (CCR6; CCR6, 0.1μM tracer): 0.99; NanoBRET Fold Response (CCR6; CCR6, 1μM tracer): 0.91
COc1ccc2[nH]c(-c3ccc(CNC(=O)CCOCCOCCOCCOCCNC(=O)CCc4ccc5n4[B-](F)(F)[N+]4=C(c6ccc[nH]6)C=CC4=C5)cc3)c(CCNC(C)=O)c2n1 [AzomelatoninICO9-2-NB590]	–	–	–	–	–	–	NanoBRET Fold Response (NPY1R; 0.1μM tracer): 1.15; NanoBRET Fold Response (NPY1R; 1μM tracer): 0.94; NanoBRET Fold Response (PTGER3; 0.1μM tracer): 1.04; NanoBRET Fold Response (PTGER3; 1μM tracer): 1.20; NanoBRET Fold Response (CCR6; 0.1μM tracer): 0.85; NanoBRET Fold Response (CCR6; 1μM tracer): 1.20
CN(CCC=C1c2ccccc2CCc2ccccc21)C(=O)CCOCCOCCOCCOCCNC(=O)CCc1ccc2n1[B-](F)(F)[N+]1=C(c3ccc[nH]3)C=CC1=C2 [Amitriptyline-e-2-NB590]	–	–	–	–	–	–	NanoBRET Fold Response (CCR6; tracer at 1μM): 1.00
